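In this assay, cells in 96-well plates receive the compound at five concentrations for 48 hours. Endpoints are linearly interpolated between the surrounding concentrations. The concentration for full growth arrest is given as TGI.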
Columns and labels:
Assay in all cases: growth of human tumour cells (NCI), 48 h
SF-295 CNS = test system: SF-295 CNS
NCI-H226 lung = test system: NCI-H226 lung
786-0 renal = test system: 786-0 renal
EKVX NSCLC = test system: EKVX NSCLC
SW-620 colon = test system: SW-620 colon
OVCAR-8 ovarian = test system: OVCAR-8 ovarian
HCT-15 colon = test system: HCT-15 colon
OVCAR-5 ovarian = test system: OVCAR-5 ovarian
HCT-116 colon = test system: HCT-116 colon
XF 498 CNS = test system: XF 498 CNS
DMS 114 small cell lung = test system: DMS 114 small cell lung
LXFL 529 NSCLC = test system: LXFL 529 NSCLC
A549 NSCLC = test system: A549 NSCLC
K-562 leukemia = test system: K-562 leukemia
HOP-92 NSCLC = test system: HOP-92 NSCLC
SNB-75 CNS = test system: SNB-75 CNS
ACHN renal = test system: ACHN renal
DLD-1 colon = test system: DLD-1 colon
SK-MEL-5 melanoma = test system: SK-MEL-5 melanoma
RPMI-8226 leukemia = test system: RPMI-8226 leukemia
CAKI-1 renal = test system: CAKI-1 renal
KM12 colon = test system: KM12 colon
TK-10 renal = test system: TK-10 renal
COLO 205 colon = test system: COLO 205 colon
M19-MEL melanoma = test system: M19-MEL melanoma
SF-539 CNS = test system: SF-539 CNS
U251 CNS = test system: U251 CNS
HL-60(TB) leukemia = test system: HL-60(TB) leukemia
M14 melanoma = test system: M14 melanoma
LOX IMVI melanoma = test system: LOX IMVI melanoma
HOP-62 NSCLC = test system: HOP-62 NSCLC
DMS 273 small cell lung = test system: DMS 273 small cell lung
NCI-H23 lung = test system: NCI-H23 lung
HCC-2998 colon = test system: HCC-2998 colon
SNB-78 CNS = test system: SNB-78 CNS
CCRF-CEM leukemia = test system: CCRF-CEM leukemia
IGROV1 ovarian = test system: IGROV1 ovarian
HOP-18 NSCLC = test system: HOP-18 NSCLC
KM20L2 colon = test system: KM20L2 colon
SF-268 CNS = test system: SF-268 CNS
UO-31 renal = test system: UO-31 renal
UACC-257 melanoma = test system: UACC-257 melanoma
A498 renal = test system: A498 renal
SK-MEL-2 melanoma = test system: SK-MEL-2 melanoma
OVCAR-3 ovarian = test system: OVCAR-3 ovarian
SN12C renal = test system: SN12C renal
OVCAR-4 ovarian = test system: OVCAR-4 ovarian
RXF 393 renal = test system: RXF 393 renal
UACC-62 melanoma = test system: UACC-62 melanoma
MALME-3M melanoma = test system: MALME-3M melanoma
SK-OV-3 ovarian = test system: SK-OV-3 ovarian
NCI-H460 lung = test system: NCI-H460 lung
MOLT-4 leukemia = test system: MOLT-4 leukemia
SR leukemia = test system: SR leukemia
SK-MEL-28 melanoma = test system: SK-MEL-28 melanoma
HT29 colon = test system: HT29 colon

Q: `CC1(C(=O)Nc2ccc3cc4ccccc4cc3c2)CC2(C)CC(C)(C1)C(O)NC2=O` (stereo unspecified) was tested. Which TGI (SF-295 CNS) did it give?
A: > 100 µM

Q: And the TGI (NCI-H226 lung)?
A: > 100 µM

Q: And the TGI (786-0 renal)?
A: > 100 µM

Q: What about the TGI (EKVX NSCLC) of the same compound?
A: > 100 µM

Q: What about the TGI (SW-620 colon) of the same compound?
A: > 100 µM

Q: What about the TGI (OVCAR-8 ovarian) of the same compound?
A: > 100 µM

Q: And the TGI (HCT-15 colon)?
A: > 100 µM

Q: What about the TGI (OVCAR-5 ovarian) of the same compound?
A: > 100 µM

Q: What about the TGI (HCT-116 colon) of the same compound?
A: > 100 µM

Q: What about the TGI (XF 498 CNS) of the same compound?
A: > 100 µM

Q: And the TGI (DMS 114 small cell lung)?
A: > 100 µM

Q: What about the TGI (LXFL 529 NSCLC) of the same compound?
A: > 100 µM

Q: What about the TGI (A549 NSCLC) of the same compound?
A: > 100 µM

Q: What about the TGI (K-562 leukemia) of the same compound?
A: > 100 µM

Q: What about the TGI (HOP-92 NSCLC) of the same compound?
A: > 100 µM

Q: And the TGI (SNB-75 CNS)?
A: > 100 µM

Q: What about the TGI (ACHN renal) of the same compound?
A: > 100 µM

Q: What about the TGI (DLD-1 colon) of the same compound?
A: > 100 µM

Q: And the TGI (SK-MEL-5 melanoma)?
A: > 100 µM

Q: And the TGI (RPMI-8226 leukemia)?
A: > 100 µM

Q: What about the TGI (CAKI-1 renal) of the same compound?
A: > 100 µM

Q: What about the TGI (KM12 colon) of the same compound?
A: > 100 µM

Q: What about the TGI (TK-10 renal) of the same compound?
A: > 100 µM

Q: What about the TGI (COLO 205 colon) of the same compound?
A: > 100 µM

Q: What about the TGI (M19-MEL melanoma) of the same compound?
A: > 100 µM

Q: And the TGI (SF-539 CNS)?
A: > 100 µM

Q: And the TGI (U251 CNS)?
A: > 100 µM

Q: And the TGI (HL-60(TB) leukemia)?
A: 85.8 µM

Q: What about the TGI (M14 melanoma) of the same compound?
A: > 100 µM

Q: What about the TGI (LOX IMVI melanoma) of the same compound?
A: > 100 µM

Q: And the TGI (HOP-62 NSCLC)?
A: > 100 µM

Q: And the TGI (DMS 273 small cell lung)?
A: > 100 µM

Q: And the TGI (NCI-H23 lung)?
A: > 100 µM

Q: What about the TGI (HCC-2998 colon) of the same compound?
A: > 100 µM

Q: And the TGI (SNB-78 CNS)?
A: > 100 µM

Q: What about the TGI (CCRF-CEM leukemia) of the same compound?
A: > 100 µM

Q: What about the TGI (IGROV1 ovarian) of the same compound?
A: > 100 µM

Q: What about the TGI (HOP-18 NSCLC) of the same compound?
A: > 100 µM

Q: And the TGI (KM20L2 colon)?
A: > 100 µM

Q: What about the TGI (SF-268 CNS) of the same compound?
A: > 100 µM

Q: And the TGI (UO-31 renal)?
A: > 100 µM

Q: What about the TGI (UACC-257 melanoma) of the same compound?
A: > 100 µM

Q: And the TGI (A498 renal)?
A: > 100 µM

Q: What about the TGI (SK-MEL-2 melanoma) of the same compound?
A: > 100 µM

Q: And the TGI (OVCAR-3 ovarian)?
A: > 100 µM

Q: What about the TGI (SN12C renal) of the same compound?
A: > 100 µM

Q: What about the TGI (OVCAR-4 ovarian) of the same compound?
A: > 100 µM

Q: What about the TGI (RXF 393 renal) of the same compound?
A: > 100 µM

Q: What about the TGI (UACC-62 melanoma) of the same compound?
A: > 100 µM

Q: What about the TGI (MALME-3M melanoma) of the same compound?
A: > 100 µM

Q: What about the TGI (SK-OV-3 ovarian) of the same compound?
A: > 100 µM

Q: And the TGI (NCI-H460 lung)?
A: > 100 µM

Q: What about the TGI (MOLT-4 leukemia) of the same compound?
A: > 100 µM

Q: What about the TGI (SR leukemia) of the same compound?
A: > 100 µM

Q: What about the TGI (SK-MEL-28 melanoma) of the same compound?
A: > 100 µM

Q: And the TGI (HT29 colon)?
A: > 100 µM

— PubChem BioAssay (NCI)
